pIC50: −log10 of the molar value.
Assays:
[1] = test system: HT-29 human colon adenocarcinoma cells; assay: Inhibition of proliferation of HT-29 human colon adenocarcinoma cells (MTT assay); assay type: cell-based; settings: HT-29 cells, read-out: Inhibition activity against proliferation of the HT-29 cells (GI50)
Protocol: HT-29 human colon adenocarcinoma cells were cultured in DMEM [10% FBS, 1% penicillin/streptomycin] at 37° C. in the presence of 5% CO2. The cultured HT-29 cells were harvested with 0.05% trypsin-0.02% EDTA and seeded in a 96-well plate at 5×10^3 cells per well.
3-(4,5-Dimethylthiazol-2-yl)-2,5-diphenyltetrazolium bromide (MTT) assay (CellTiter 96 Assay, Promega) was used to measure cell viability. After adding 15 μL of a dye per well and culturing for 2 hours, the cells were treated with 100 μL of a stop solution and absorbance was measured 24 hours later. The test compound was treated a day after plating. The test compound had been sequentially diluted at 12 concentrations from a 10 mM stock solution using sterilized dimethylsulfoxide (DMSO) and treated with an amount of 0.5 μL. Absorbance at 590 nm was recorded using EnVision2103, and GI50 value was calculated using GraphPad Prism 4.0 software.

Full sequence FAK = Full sequence FAK (Homo sapiens (Human), UniProt Q05397); assay: Measurement of FAK kinase activity (ULight-LANCE assay); assay type: biochemical; settings: TR-FRET, 3 nM FAK, 10 μM ATP; read-out: FAK inhibition activity (IC50)
Protocol: ULight-poly GT (PerkinElmer #TRF0100-D), Eu-anti-phospho-Tyr (PT66) (PerkinElmer #AD0068) and Lance detection buffer (PerkinElmer #CR-97-100) were purchased from PerkinElmer. […] 4× ULight-poly GT was adjusted to a final concentration of 100 nM. ATP (Sigma #A2383) was adjusted to a final concentration of 10 μM and in 2.5 μL aliquots. The test compound was sequentially diluted at 12 concentrations and treated with an amount of 0.5 μL. After shaking well and allowing to react at room temperature for 60 minutes, 5 μL of ethylenediaminetetraacetic acid (EDTA, final concentration 40 mM) diluted in Lance detection buffer (Lance detection buffer) was added and the mixture was left at room temperature for 5 minutes to stop the reaction. After adding 4× Eu-anti-phospho-Tyr (PT66) phosphorylated antibody diluted to a final concentration of 2 nM in detection buffer with an amount of 5 μL, and reaction was performed at room temperature for 60 minutes.

[2] = test system: prostate cancer PC-3, breast cancer BT-474, colon LoVo, lung cancer NCI-H460, glioblastoma U-87 MG and pancreatic cancer BxPC-3 cells; settings: cited from earlier work
tumor = settings: concurrent administration with docetaxel, animal model, P values<0.01; cited from earlier work

Full sequence FAK, sequence (Q05397 whole entry): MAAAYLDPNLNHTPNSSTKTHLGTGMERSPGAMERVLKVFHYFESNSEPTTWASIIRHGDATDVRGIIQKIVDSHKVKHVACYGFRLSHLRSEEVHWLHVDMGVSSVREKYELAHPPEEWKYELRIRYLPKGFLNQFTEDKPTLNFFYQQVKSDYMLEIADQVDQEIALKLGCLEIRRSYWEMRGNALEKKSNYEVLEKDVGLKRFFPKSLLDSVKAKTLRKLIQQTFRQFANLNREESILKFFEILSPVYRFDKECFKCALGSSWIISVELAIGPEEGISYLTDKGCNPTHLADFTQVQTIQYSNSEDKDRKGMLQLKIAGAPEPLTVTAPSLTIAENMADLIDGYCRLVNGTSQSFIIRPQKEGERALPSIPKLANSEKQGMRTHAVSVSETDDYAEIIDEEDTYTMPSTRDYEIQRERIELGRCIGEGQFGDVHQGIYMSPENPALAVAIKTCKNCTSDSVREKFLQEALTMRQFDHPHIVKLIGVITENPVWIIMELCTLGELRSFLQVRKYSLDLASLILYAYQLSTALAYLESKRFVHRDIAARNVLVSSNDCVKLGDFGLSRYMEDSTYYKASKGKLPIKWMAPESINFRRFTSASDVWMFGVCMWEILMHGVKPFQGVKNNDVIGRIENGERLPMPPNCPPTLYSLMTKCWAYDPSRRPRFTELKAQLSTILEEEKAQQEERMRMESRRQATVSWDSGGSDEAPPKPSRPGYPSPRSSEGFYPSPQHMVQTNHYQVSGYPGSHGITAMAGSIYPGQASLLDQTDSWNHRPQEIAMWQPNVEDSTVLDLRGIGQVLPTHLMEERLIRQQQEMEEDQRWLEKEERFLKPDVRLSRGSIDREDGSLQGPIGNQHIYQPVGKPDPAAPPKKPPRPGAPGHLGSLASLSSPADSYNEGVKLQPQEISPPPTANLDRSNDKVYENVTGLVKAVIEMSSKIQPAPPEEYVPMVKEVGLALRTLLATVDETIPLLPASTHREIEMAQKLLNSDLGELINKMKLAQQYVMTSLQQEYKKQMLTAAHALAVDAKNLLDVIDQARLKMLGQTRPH

CNC(=O)c1cccc(-c2csc3c(N)nc(Nc4ccc(N5CCOCC5)nc4)nc23)c1 [Example 2, 3-(4-amino-2-(6-morpholinopyridin-3-ylamino)thieno[3,2-d]pyrimidin-7-yl)-N-methylbenzamide]
GI50 [1]: < 10 µM | pIC50 (Full sequence FAK): > 5.00

CNC(=O)c1cccc(-c2csc3c(N)nc(Nc4ccc(N5CCC(O)CC5)cc4)nc23)c1 [Example 3, 3-(4-amino-2-(4-(4-hydroxypiperidin-1-yl)phenylamino)thieno[3,2-d]pyrimidin-7-yl)-N-methylbenzamide]
GI50 [1]: < 10 µM | pIC50 (Full sequence FAK): > 5.00

CCN1CCN(c2ccc(Nc3nc(N)c4scc(-c5cccc(C(=O)NC)c5)c4n3)cc2)CC1 [Example 6, 3-(4-amino-2-(4-(4-ethylpiperazin-1-yl)phenylamino)thieno[3,2-d]pyrimidin-7-yl)-N-methylbenzamide]
GI50 [1]: < 10 µM | pIC50 (Full sequence FAK): > 5.00

CNC(=O)c1cccc(-c2csc3c(N)nc(Nc4ccc(N5CCC(N6CCCC6)CC5)cc4)nc23)c1 [Example 7, 3-(4-amino-2-(4-(4-(pyrrolidin-1-yl)piperidin-1-yl)phenylamino)thieno[3,2-d]pyrimidin-7-yl)-N-methylbenzamide]
GI50 [1]: < 10 µM | pIC50 (Full sequence FAK): > 5.00

COc1cc(Nc2nc(N)c3scc(-c4cccc(NC(=O)C5CC5)c4)c3n2)cc(OC)c1OC [Example 15, N-(3-(4-amino-2-(3,4,5-trimethoxyphenylamino)thieno[3,2-d]pyrimidin-7-yl)phenyl)cyclopropanecarboxamide]
GI50 [1]: < 10 µM | pIC50 (Full sequence FAK): > 5.00

CCS(=O)(=O)Nc1cccc(-c2csc3c(N)nc(Nc4cc(OC)c(OC)c(OC)c4)nc23)c1 [Example 17, N-(3-(4-amino-2-(3,4,5-trimethoxyphenylamino)thieno[3,2-d]pyrimidin-7-yl)phenyl)ethanesulfonamide]
GI50 [1]: < 10 µM | pIC50 (Full sequence FAK): > 5.00

CNS(=O)(=O)c1cccc(-c2csc3c(N)nc(Nc4cc(OC)c(OC)c(OC)c4)nc23)c1 [Example 26, 3-(4-amino-2-(3,4,5-trimethoxyphenylamino)thieno[3,2-d]pyrimidin-7-yl)-N-methylbenzenesulfonamide]
GI50 [1]: < 10 µM | pIC50 (Full sequence FAK): > 5.00

CCN1CCN(c2ccc(Nc3nc(N)c4scc(-c5cccc(NS(C)(=O)=O)c5)c4n3)cn2)CC1 [Example 27, N-(3-(4-amino-2-(6-(4-ethylpiperazin-1-yl)pyridin-3-ylamino)thieno[3,2-d]pyrimidin-7-yl)phenyl)methanesulfonamide]
GI50 [1]: < 10 µM | pIC50 (Full sequence FAK): > 5.00

CCN1CCN(c2ccc(Nc3nc(N)c4scc(-c5cnc6ccccc6c5)c4n3)cn2)CC1 [Example 39, N^2-(6-(4-ethylpiperazin-1-yl)pyridin-3-yl)-7-(quinolin-3-yl)thieno[3,2-d]pyrimidin-2,4-diamine]
GI50 [1]: < 10 µM | pIC50 (Full sequence FAK): > 5.00

CCN1CCN(c2ccc(Nc3nc(N)c4scc(-c5cnc6ccccc6c5)c4n3)cc2)CC1 [Example 41, N^2-(4-(4-ethylpiperazin-1-yl)phenyl)-7-(quinolin-3-yl)thieno[3,2-d]pyrimidin-2,4-amine]
GI50 [1]: < 10 µM | pIC50 (Full sequence FAK): > 5.00

Nc1nc(Nc2ccc(N3CCOCC3)nc2)nc2c(-c3cnc4ccccc4c3)csc12 [Example 42, N^2-(6-morpholinopyridin-3-yl)-7-(quinolin-3-yl)thieno[3,2-d]pyrimidin-2,4-diamine]
GI50 [1]: < 10 µM | pIC50 (Full sequence FAK): > 5.00

CCN1CCN(c2cccc(Nc3nc(N)c4scc(-c5cnc6ccccc6c5)c4n3)c2)CC1 [Example 43, N^2-(3-(4-ethylpiperazin-1-yl)phenyl)-7-(quinolin-3-yl)thieno[3,2-d]pyrimidin-2,4-diamine]
GI50 [1]: < 10 µM | pIC50 (Full sequence FAK): > 5.00

C#Cc1csc2c(NCc3ccccc3)nc(NC[C@H](C)O)nc12 [Example 44, (S)-1-(4-(benzylamino)-7-ethynylthieno[3,2-d]pyrimidin-2-ylamino)propan-2-ol]
GI50 [1]: < 10 µM

C#Cc1csc2c(N[C@H](C)c3ccccc3)nc(NC[C@H](C)O)nc12 [Example 45, (S)-1-(7-ethynyl-4-((R)-1-phenylethylamino)thieno[3,2-d]pyrimidin-2-ylamino)propan-2-ol]
GI50 [1]: < 10 µM | pIC50 (Full sequence FAK): > 5.00

C=Cc1csc2c(NCc3ccccc3)nc(NCCN3CCOCC3)nc12 [Example 46, N^4-benzyl-N^2-(2-morpholinoethyl)-7-vinylthieno[3,2-d]pyrimidin-2,4-diamine]
GI50 [1]: < 10 µM | pIC50 (Full sequence FAK): > 5.00

C=Cc1csc2c(N[C@H](C)c3ccccc3)nc(NCCN3CCOCC3)nc12 [Example 47, (R)—N^2-(2-morpholinoethyl)-N^4-(1-phenylethyl)-7-vinylthieno[3,2-d]pyrimidin-2,4-diamine]
GI50 [1]: < 10 µM | pIC50 (Full sequence FAK): > 5.00

CCc1csc2c(NCc3ccccc3)nc(NCCN3CCOCC3)nc12 [Example 48, N^4-benzyl-7-ethyl-N^2-(2-morpholinoethyl)thieno[3,2-d]pyrimidin-2,4-diamine]
GI50 [1]: < 10 µM | pIC50 (Full sequence FAK): > 5.00

CN(c1ncccc1CNc1nc(Nc2ccc3c(c2)CC(=O)N3)ncc1C(F)(F)F)S(C)(=O)=O [PF-562271]
inhibition of tumor growth or tumor degeneration ([2]; human tumor xenograft, 25-100 mg/kg p.o.): 42-90% | toxicity observed ([2]; in vivo): No special toxicity has been observed

CNC(=O)c1ccccc1Nc1nc(Nc2ccc(N3CCOCC3)cc2OC)ncc1Cl [TAE226]
tumor reduction (tumor): 85-97%
